These results are taken from patent publication US20070259094A1, “N-acetylglucosamine as a food and beverage additive” (priority 2002, published 2007).

Like-named read-outs stand apart in the source and are kept apart here.

Data set [1] has as its system IL-1β-induced NO production in normal human articular chondrocytes. The conditions noted are these: cited from earlier work; for effect on IL-1β-induced NO production: normal human articular chondrocytes; for Inhibitory Activity on IL-1β induced NO Production: table of various sugars.
A short description of data set [2]: Bran muffin baking behaviour at 400° F. (204° C.). The following applies: bran muffins baked at 204° C. The data set is classed as physicochemical. The method, then:
Measure out 4 times 415 mL dry muffin mix (sufficient to make 6 muffins each) to make up the following formulae
Add to each dry mix 160 mL of water and ¼ of egg mixture and mix thoroughly.
Pour equal amounts into 6 muffin cups for each of the formulae.
Preheat oven to 400° F. or 204° C., bake each formula separately and observing cooking behaviour.

For data set [3] the following is noted: cited from earlier work; for half-life: doses as high as 20 grams per human subject; for adverse events: five subjects.
A further data set is described as follows: pH of aqueous solution. Type of data set: physicochemical. The conditions noted are these: for pH of solution: 2 grams in 180 mL of water. The method, then: Two grams of glucosamine sulphate in 180 mL of water gives a solution with a pH of 6.06 and glucosamine hydrochloride gives a solution with a pH of 6.07.
A solution of 2 grams of N-acetylglucosamine in 180 mL of water has a pH of 7.40.

Data set [4] deals with severe treatment-resistant inflammatory bowel disease. The following applies: cited from earlier work.
Data set [5] concerns intestinal mucosa. The experiment in a line: Incorporation of glucosamine and N-acetylglucosamine into glycoproteins of intestinal mucosa in vitro. The data set is classed as cell-based, human. The conditions noted are these: normal subjects, on average. The text has this: Inflammatory conditions can also interfere with the incorporation of glucosamine into glycosaminoglycans. Intestinal mucosal from patients with ulcerative colitis and Crohn's disease and from patients without inflammatory disease were studied in vitro. N-acetylglucosamine is preferentially incorporated into glycoproteins over glucosamine. In normal subjects—ratio ranges were from 0.04 to 0.26 with a mean 0.097. Thus on average 10 times more N-acetylglucosamine is incorporated into macromolecules than glucosamine. In IBD the mean ratio of incorporation of glucosamine to N-acetylglucosamine is 0.039 for Crohn's and 0.031 for ulcerative colitis. In other words, 25 to 32 times more N-acetylglucosamine was incorporated into macromolecules compared to glucosamine (2).

For the next data set, the system named is COX-1. The following applies: constitutively expressed, human chondrocytes; cited from earlier work.
For the next data set, the system named is Inducible NO Synthetase. The following applies: cited from earlier work; for inhibiting the production of nitric oxide synthetase: human chondrocytes stimulated with IL-1.
For another data set, the system named is COX-2. The conditions noted are these: cited from earlier work; for inhibiting the production of COX-2: human chondrocytes stimulated with IL-1.
For another data set, the system named is IL-6. The conditions noted are these: cited from earlier work; for inhibiting the production of IL-6: human chondrocytes stimulated with IL-1.
The test system of data set [6] is primary knee osteoarthritis. The following applies: cited from earlier work.
The next data set has as its system osteoarthritis (knee). The following applies: 4-week course, cited from earlier work; for symptoms of osteoarthritis: glucosamine sulphate 1,500 mg, ibuprofen 1,200 mg.
Data set [7] deals with osteoarthritis of the temporomandibular joint. The conditions noted are these: cited from earlier work; for patients improved (positive clinical response = 20% decrease TMJ pain with function): GS 500 mg tid, ibuprofen 400 mg tid, p=0.73 between groups; for number of patients improved (positive clinical response): of 21 GS and 18 ibuprofen completers.
The conditions of data set [8]: cited from earlier work.
The subject of data set [9] is intestinal mucosa. The following applies: cited from earlier work.
The conditions of data set [10]: cited from earlier work; for absolute bioavailability: compared with IV at 100%.
Setting [11] is: rectal administration as sole therapy.
Where [12] appears, read: IL-1β-stimulated human chondrocytes.
Where [13] appears, read: number of patients of 106, three years.

For `O=C[C@H](O)[C@@H](O)[C@H](O)[C@H](O)C(=O)O` [Glucuronic Acid], in data set [1], the “effect on IL-1β-induced NO production” value is on record as “do not express this activity” and the “Inhibitory Activity on IL-1β induced NO Production” value is “Nil”.

A word on the half-life: it is the time in which the quantity being followed falls by half. On to `Cl.N[C@H]1C(O)O[C@H](CO)[C@@H](O)[C@@H]1O` (stereo partly drawn) [Glucosamine hydrochloride], for which, in data set [2], the “stability in the baking process” value is “break down in the baking process”. Further, the half-life in [3] (IV) was 150 min. Moreover, the adverse events entry in data set [3] is “no adverse events reported”. Besides, in data set [3] (human, in vivo, iv), the “blood sugar when administered with 7 units of insulin” value was “showed a rise in blood sugar” and the “blood sugar when administered without insulin” value is on record as “Neither agent showed a rise in blood sugar”. Besides, in the data set “pH of aqueous solution”, the “pH (1% in water)” value amounted to 6.07 and the pH of solution was 6.07.

Regarding `CC(=O)N[C@H]1C(O)O[C@H](CO)[C@@H](O)[C@@H]1O` (stereo partly drawn) [N-Acetylglucosamine, N-acetylglucosamine], in data set [4] (3 to 6 grams daily in three divided doses), the “adverse side-effects of treatment” value is recorded as “no adverse side-effects of treatment were noted in any patient”. Further, the “histology in all cases biopsied” value in [4] (in vivo) was “evidence of histological improvement”. For the same compound, the “children with symptomatic Crohn's stricture requiring surgery” value in [4] (of 7, mean follow-up >2.5 years) is 3. Also, the “children showing clear improvement” value in data set [4] (oral adjunct therapy, 3-6 g daily, 12 children) is “Eight”. Moreover, the children requiring resection entry in data set [4] (oral adjunct therapy, 12 children) is “four”. For the same compound, in [4] (rectal administration as sole therapy, nine children), the cases of remission entry is recorded as “two”. In [4] (setting [11]), the “cases of clear improvement” value is listed as “three” and the “cases of no effect” value is listed as “two”. Moreover, the “stability in the baking process” value in [2] is on record as “stable during the baking process”. Also, in the data set with intestinal mucosa [5], the “times more N-acetylglucosamine incorporated into macromolecules than glucosamine” value turned out to be 10 times. The “COX-1 Expression, Protein” value in the data set on COX-1 is “No Inhibition”. In the data set on Inducible NO Synthetase (setting [12]), the “Inducible NO Synthetase Expression, Protein” value is given as “inhibits” and the “Inducible NO Synthetase Expression, mRNA” value was “inhibits”. In addition, the “inhibiting the production of nitric oxide synthetase” value in the data set on Inducible NO Synthetase was “inhibiting”. Further, the “ability to inhibit IL-1β-induced NO production relative to glucosamine” value in data set [1] (10 mM concentration) is recorded as 5 times. In addition, in data set [1], the “effect on IL-1β-induced NO production” value is “inhibit” and the “Inhibitory Activity on IL-1β induced NO Production” value is “Strong”. In the data set with COX-2 (setting [12]), the “COX-2 Expression, Protein” value is “inhibits” and the “COX-2 Expression, mRNA” value is “inhibits”. The “inhibiting the production of COX-2” value with COX-2 was “inhibiting”. Moreover, the half-life in data set [3] (IV) is 220 min. In addition, the “blood sugar when administered without insulin” value in data set [3] (IV, human) was “Neither agent showed a rise in blood sugar”. In [3] (IV, in 24 hours), the “administered dose excreted in the urine” value is given as 54%. Also, the adverse events entry in data set [3] is given as “no adverse events reported”. Moreover, in the data set “pH of aqueous solution”, the “pH (1% in water)” value is recorded as 7.4 and the pH of solution came to 7.40. Also, the “IL-6 Production” value with IL-6 (setting [12]) is on record as “inhibits”. Also, the “inhibiting the production of IL-6” value in the data set with IL-6 is listed as “inhibiting”.

As to `CC(=O)N[C@@H]1C(O)O[C@H](CO)[C@@H](O)[C@@H]1O` (stereo partly drawn) [N-Acetylmannosamine], in [1], the “effect on IL-1β-induced NO production” value is reported as “do not express this activity” and the “Inhibitory Activity on IL-1β induced NO Production” value was “Nil”.

As to `N[C@H]1C(O)O[C@H](CO)[C@@H](O)[C@@H]1O.O=S(=O)(O)O` (stereo partly drawn) [Glucosamine Sulphate], the “stability in the baking process” value in data set [2] is recorded as “break down in the baking process”. For the same compound, the “significant joint space narrowing” value in data set [6] (1.5 grams per day, three years, versus placebo, p<0.05) is “did not”. In [6] (during the study), the “fasting plasma glucose concentrations” value was “decreasing slightly”. Moreover, in data set [6] (setting [13]), the “Withdrawal from Study Due to Adverse Events” value is on record as 21 and the “Withdrawal from Study, Lack of Efficacy” value is reported as 3. Moreover, in [6] (three-year period), the “incidence and type of adverse events versus placebo” value is on record as “not different between the two groups”; the “routine laboratory tests (system organs, metabolic functions)” value is “did not show any abnormalities”. Besides, in the data set on osteoarthritis (knee), the “patients dropped out because of adverse events / side effects” value is given as “None” and the symptoms of osteoarthritis result is listed as “reduced symptoms”. In data set [7] (90 days), the “patients improved (positive clinical response = 20% decrease TMJ pain with function)” value is on record as 71%, the “patients discontinued due to dizziness” value is given as “one” and the “patients discontinued due to stomach upset” value was “one”. For the same compound, in [7] (between Day 90 and 120, compared with ibuprofen), the “decrease in TMJ pain with function and acetaminophen use, between-group comparison” value is “significantly greater decrease”. Further, the “number of patients improved (positive clinical response)” value in data set [7] is recorded as “Fifteen”. Further, in the data set “pH of aqueous solution”, the “pH (1% in water)” value is 6.06 and the pH of solution is on record as 6.06.

Turning to `N[C@H]1C(O)O[C@H](CO)[C@@H](O)[C@@H]1O` (stereo partly drawn) [Glucosamine], the “total body insulin sensitivity” value in [8] (forearm glucosamine infusion, twenty human volunteers) was “did not affect”. Besides, in data set [8] (glucosamine infusion), the “baseline arteriovenous glucose differences” value was “not affected”, the forearm blood flow result was “did not alter” and the “forearm skeletal muscle glucose uptake” value is listed as “did not affect”. Besides, the “inhibiting the production of nitric oxide synthetase” value in the data set on Inducible NO Synthetase is reported as “not effective”. Further, the “mean ratio of incorporation of glucosamine to N-acetylglucosamine” value in the data set with intestinal mucosa [9] (Crohn's) is 0.039. In addition, in the data set on intestinal mucosa [9] (normal subjects), the “ratio of incorporation of glucosamine to N-acetylglucosamine, mean” value was 0.097. In the data set on intestinal mucosa [9] (ulcerative colitis), the “mean ratio of incorporation of glucosamine to N-acetylglucosamine” value was 0.031. For the same compound, in data set [1], the “effect on IL-1β-induced NO production” value is “inhibit” and the “Inhibitory Activity on IL-1β induced NO Production” value was “Weak”. Moreover, the “inhibiting the production of COX-2” value in the data set with COX-2 is “not effective”. Besides, the absolute bioavailability in data set [10] (IM administration) is on record as 93%. Also, in [10] (oral administration), the absolute bioavailability is 44%. In [10] (oral route), the “administered dose excreted by the kidneys” value is reported as “about 10%” and the “administered dose excreted via the feces” value is 11%. For the same compound, the “inhibiting the production of IL-6” value in the data set with IL-6 was “not effective”.

`CC(C)Cc1ccc(C(C)C(=O)O)cc1` (stereo not drawn) [ibuprofen]: in the data set with osteoarthritis (knee), the “patients dropped out because of adverse events / side effects” value was 10% and the symptoms of osteoarthritis result was “reduced symptoms”. In data set [7] (90 days), the “patients improved (positive clinical response = 20% decrease TMJ pain with function)” value is 61%, the “patients discontinued due to inadequate pain control” value is given as “one” and the “patients discontinued due to stomach upset” value is 3. Further, the “number of patients improved (positive clinical response)” value in [7] is listed as 11.

Turning to `CC(=O)N[C@@H]1[C@@H](O)[C@@H](O)[C@@H](CO)O[C@@H]1O` [N-Acetylgalactosmine], in data set [1], the “Inhibitory Activity on IL-1β induced NO Production” value is reported as “Strong”.
